In patent US7714017B2, “Carboxylic acid peri-substituted bicyclics for occlusive artery disease” (Decode Genetics, EHF, priority 2004, dated 2010):

The molecules below were run against T1, prostanoid EP3 receptors (Homo sapiens, UniProt P43115) (assay: binding on prostanoid EP3 receptors (method of Abramovitz et al.)). Conditions: Chart 1, read-out: Activity (EP3 receptor binding IC50 class).
T1 sequence (P43115 1-390): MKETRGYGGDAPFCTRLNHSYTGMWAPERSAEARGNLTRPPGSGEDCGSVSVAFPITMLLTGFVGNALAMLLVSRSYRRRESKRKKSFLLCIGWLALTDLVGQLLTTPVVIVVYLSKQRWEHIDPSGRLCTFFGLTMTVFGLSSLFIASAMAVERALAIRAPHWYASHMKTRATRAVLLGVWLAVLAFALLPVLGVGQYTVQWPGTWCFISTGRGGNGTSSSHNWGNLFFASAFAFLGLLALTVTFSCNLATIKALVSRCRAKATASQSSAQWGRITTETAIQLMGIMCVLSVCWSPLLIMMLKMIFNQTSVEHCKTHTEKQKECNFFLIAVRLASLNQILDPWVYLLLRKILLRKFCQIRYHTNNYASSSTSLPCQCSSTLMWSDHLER
Protocol: (§1) The compounds of the invention were assayed for their binding on prostanoid EP3 receptors according to the method of Abramovitz et al. [Bioch. Biophys. Acta, 1473, 285-293 (2000)]. […] Compounds with IC50<1 μM are shown as +++; compounds with IC50 1-10 μM are shown as ++; and compounds with IC50>10 μM are shown as +.
as §1, with “Acta.” for “Acta,”

`CC(C)c1cn(Cc2ccc(Cl)cc2Cl)c2c(CCC(=O)O)cccc12` [Compound A14] and `O=C(O)/C=C/c1cccc2c1N(Cc1ccc(Cl)cc1Cl)C(=O)C2=O` [Compound A17, (E)-3-[1-(2,4-Dichloro-benzyl)-2,3-dioxo-2,3-dihydro-1H-indol-7-yl]-acrylic acid] fall in the same range of IC50: 1000 to 10000 nM for the first, 1000 to 10000 nM for the second.

Compared with `O=C(O)C(=O)Nc1cccc2c1N(Cc1ccc3ccccc3c1)C(=O)CO2` [Compound A51, N-(4-Naphthalen-2-ylmethyl-3-oxo-3,4-dihydro-2H-benzo[1,4]oxazin-5-yl)-oxalamic acid], `O=C(O)COc1cccc2oc(=O)n(Cc3ccc4ccccc4c3)c12` [Compound A04, (3-Naphthalen-2-ylmethyl-2-oxo-2,3-dihydro-benzooxazol-4-yloxy)-acetic acid] is lower in IC50: > 10000 nM for the first, 1000 to 10000 nM for the second. The second is the more potent here.

Compared with `Cc1cn(Cc2cn3ccccc3n2)c2c(/C=C/C(=O)O)cc(F)cc12` [Compound A57, (E)-3-(5-Fluoro-1-imidazo[1,2-a]pyridin-2-ylmethyl-3-methyl-1H-indol-7-yl)-acrylic acid], `Cn1cc(/C=C/C(=O)O)c2c(Oc3ccc(Cl)c(F)c3)cccc21` [Compound A43, (E)-3-[4-(4-Chloro-3-fluoro-phenoxy)-1-methyl-1H-indol-3-yl]-acrylic acid] is lower in IC50: 1000 to 10000 nM for the first, < 1000 nM for the second.

First: CC12CCCC(/C=C/C(=O)O)=C1N(Cc1cccc(Cl)c1)C(=O)C2 (centres unmarked) [Compound A35, (E)-3-[1-(3-Chloro-benzyl)-3a-methyl-2-oxo-2,3,3a,4,5,6-hexahydro-1H-indol-7-yl]-acrylic acid]
Second: CC12CCCC(/C=C/C(=O)O)=C1N(Cc1ccc(Cl)c(Cl)c1)C(=O)C2 (centres unmarked) [Compound A34, (E)-3-[1-(3,4-Dichloro-benzyl)-3a-methyl-2-oxo-2,3,3a,4,5,6-hexahydro-1H-indol-7-yl]-acrylic acid]
The IC50 of the first is higher: 1000 to 10000 nM for the first, < 1000 nM for the second.

`O=C(O)C=Cc1cccc2c1N(Cc1ccc(Cl)cc1Cl)C(=O)C21OCCO1` [Compound A16] and `O=C(O)/C=C/c1cccc2c1N(Cc1ccc(Cl)cc1Cl)C(=O)C2(CO)CO` [Compound A62, (E)-3-[1-(2,4-Dichloro-benzyl)-3,3-bis-hydroxymethyl-2-oxo-2,3-dihydro-1H-indol-7-yl]-acrylic acid] cannot be ordered by IC50: < 1000 nM for the first, < 1000 nM for the second.

First: CC12CCCC(/C=C/C(=O)O)=C1N(Cc1cccc(Cl)c1Cl)C(=O)C2 (centres unmarked) [Compound A36, (E)-3-[1-(2,3-Dichloro-benzyl)-3a-methyl-2-oxo-2,3,3a,4,5,6-hexahydro-1H-indol-7-yl]-acrylic acid]
Second: CC12CCCC(/C=C/C(=O)O)=C1N(Cc1ccc(F)cc1)C(=O)C2 (centres unmarked) [Compound A28, (E)-3-[1-(4-Fluoro-benzyl)-3a-methyl-2-oxo-2,3,3a,4,5,6-hexahydro-1H-indol-7-yl]-acrylic acid]
The IC50 of the first is higher: 1000 to 10000 nM for the first, < 1000 nM for the second. The second is the more potent here.

Compared with `Cn1cc(/C=C/C(=O)O)c2c(Oc3ccc(Cl)c(Cl)c3)cccc21` [Compound A39, (E)-3-[4-(3,4-Dichloro-phenoxy)-1-methyl-1H-indol-3-yl]-acrylic acid], `Cn1cc(/C=C/C(=O)O)c2c(Oc3ccc(Cl)cc3Cl)cccc21` [Compound A40, (E)-3-[4-(2,4-Dichloro-phenoxy)-1-methyl-1H-indol-3-yl]-acrylic acid] is lower in IC50: 1000 to 10000 nM for the first, < 1000 nM for the second.

`CC12CCCC(CCC(=O)O)=C1N(Cc1ccc(F)c(F)c1)C(=O)C2` (centres unmarked) [Compound A50, 3-[1-(3,4-Difluoro-benzyl)-3a-methyl-2-oxo-2,3,3a,4,5,6-hexahydro-1H-indol-7-yl]-propionic acid] and `CC12CCCC(CCC(=O)O)C1N(Cc1ccc(F)c(F)c1)C(=O)C2` (centres unmarked) [Compound A49, 3-[1-(3,4-Difluoro-benzyl)-3a-methyl-2-oxo-octahydro-indol-7-yl]-propionic acid] fall in the same range of IC50: 1000 to 10000 nM for the first, 1000 to 10000 nM for the second.

With `O=C(O)COc1cccc2ncn(Cc3ccc4ccccc4c3)c12` [Compound A22, (3-Naphthalen-2-ylmethyl-3H-benzoimidazol-4-yloxy)-acetic acid] the IC50 was > 10000 nM.
